Drawing on ChEMBL document CHEMBL5143734, “Seco-Lupane Triterpene Derivatives Induce Ferroptosis through GPX4/ACSL4 Axis and Target Cyclin D1 to Block the Cell Cycle” (J Med Chem, 2022), this text covers IC50 for 18 molecules.

What all share (assay type): functional, cell-based
One test concerns MCF7. Description: Cytotoxicity against human MCF7 cells assessed as reduction in cell viability by CCK-8 assay. A general note: Tetrazolium dyes change colour on reduction, which living cells bring about.
The next test deals with A549. Put plainly: Cytotoxicity against human A549 cells assessed as reduction in cell viability by CCK-8 assay.
In another test the test system is HepG2. Put plainly: Cytotoxicity against human HepG2 cells assessed as reduction in cell viability by CCK-8 assay.
The next test concerns PC-3M. Description: Cytotoxicity against human PC-3M cells assessed as reduction in cell viability by CCK-8 assay.
The next test relates to PANC-1. Description: Cytotoxicity against human PANC-1 cells assessed as reduction in cell viability by CCK-8 assay.

For the molecule `C=C(C)[C@@H]1CC[C@]2(C(=O)OCCCCn3ccnc3CC)CC[C@]3(C)[C@H](C[C@H]4OC(=O)C[C@@H](O)[C@]5(C)[C@@H]4[C@@]3(C)CC[C@H]5C(=C)C)[C@@H]12`, the IC50 with MCF7 came to 91.1 µM; in the test on A549, 19.5 µM; in the test on HepG2 it was 14.6 µM; with PC-3M it was 12.1 µM; with PANC-1, 16.1 µM.

Turning to `C=C(C)[C@@H]1CC[C@]2(C(=O)OCCCCCCn3cnc(C)c3)CC[C@]3(C)[C@H](C[C@H]4OC(=O)C[C@@H](O)[C@]5(C)[C@@H]4[C@@]3(C)CC[C@H]5C(=C)C)[C@@H]12`, the IC50 is 44.9 µM with MCF7; 14.2 µM in the test on A549; 3.64 µM in the test with HepG2; 12.2 µM with PC-3M; 13.3 µM in the test with PANC-1.

`C=C(C)[C@@H]1CC[C@]2(C(=O)OCCCBr)CC[C@]3(C)[C@H](C[C@H]4OC(=O)C[C@@H](O)[C@]5(C)[C@@H]4[C@@]3(C)CC[C@H]5C(=C)C)[C@@H]12`: the IC50 in the test on MCF7 was greater than 200 µM; with A549, 136 µM; with HepG2, greater than 200 µM; in the test on PC-3M, 109 µM; in the test on PANC-1, greater than 200 µM.

With `C=C(C)[C@@H]1CC[C@]2(C(=O)OCCCn3ccnc3CC)CC[C@]3(C)[C@H](C[C@@H](O)[C@@H]4[C@@]5(C)C(CC(=O)OC)OC(C)(C)C5CC[C@]43C)[C@@H]12` (stereo not given in full), the half-inhibitory concentration (IC50) with MCF7 is 66.2 µM; in the test with A549, 27.4 µM; in the test on HepG2 it was 18.9 µM; in the test with PC-3M, 24.9 µM; in the test with PANC-1, 47.7 µM.

As for `C=C(C)[C@@H]1CC[C@]2(C(=O)OCCCCn3cnc(C)c3)CC[C@]3(C)[C@H](C[C@H]4OC(=O)C[C@@H](O)[C@]5(C)[C@@H]4[C@@]3(C)CC[C@H]5C(=C)C)[C@@H]12`, the half-inhibitory concentration (IC50) is 45.3 µM in the test with MCF7; 20 µM in the test with A549; 16 µM in the test with HepG2; 15.5 µM in the test on PC-3M; 29.2 µM with PANC-1.

As for `C=C(C)[C@@H]1CC[C@]2(C(=O)OCCCCCCCCCCBr)CC[C@]3(C)[C@H](C[C@@H](O)[C@@H]4[C@@]5(C)C(CC(=O)OC)OC(C)(C)C5CC[C@]43C)[C@@H]12` (stereo not given in full), the 50% inhibitory concentration (IC50) was found to be 88.5 µM in the test on MCF7; 34.6 µM in the test on A549; 15.1 µM with HepG2; 16.6 µM with PC-3M; 15.1 µM in the test with PANC-1.

As for `C=C(C)[C@@H]1CC[C@]2(C(=O)OCCCCn3cc(CCN)c4ccccc43)CC[C@]3(C)[C@H](C[C@@H](O)[C@@H]4[C@@]5(C)C(CC(=O)OC)OC(C)(C)C5CC[C@]43C)[C@@H]12` (stereo not given in full), the IC50 amounted to 6.25 µM in the test with MCF7; 7.05 µM with A549; 1.7 µM in the test on HepG2; 5.66 µM with PC-3M; 6.42 µM in the test with PANC-1.

Regarding `C=C(C)[C@@H]1CC[C@]2(C(=O)OCCCCCCCCCCn3ccnc3CC)CC[C@]3(C)[C@H](C[C@H]4OC(=O)C[C@@H](O)[C@]5(C)[C@@H]4[C@@]3(C)CC[C@H]5C(=C)C)[C@@H]12`, the IC50 in the test on MCF7 is 30.9 µM; with A549, 15.1 µM; in the test with HepG2, 4.36 µM; in the test on PC-3M, 13.9 µM; with PANC-1, 9.93 µM.

As for `C=C(C)[C@@H]1CC[C@]2(C(=O)OCCCCCCCCCCn3ccnc3)CC[C@]3(C)[C@H](C[C@@H](O)[C@@H]4[C@@]5(C)C(CC(=O)OC)OC(C)(C)C5CC[C@]43C)[C@@H]12` (stereo not given in full), the IC50 with MCF7 turned out to be 36.1 µM; in the test with A549, 22.4 µM; with HepG2 it was 6.83 µM; with PC-3M, 14 µM; in the test on PANC-1 it was 14 µM.

As to `C=C(C)[C@@H]1CC[C@]2(C(=O)OCCCCCCCCCCn3cncn3)CC[C@]3(C)[C@H](C[C@@H](O)[C@@H]4[C@@]5(C)C(CC(=O)OC)OC(C)(C)C5CC[C@]43C)[C@@H]12` (stereo not given in full), the IC50 in the test with MCF7 was determined as 71 µM; in the test with A549 it was 77.8 µM; with HepG2, 36.4 µM; in the test on PC-3M, 23.5 µM; in the test on PANC-1 it was 104 µM.

`C=C(C)[C@@H]1CC[C@]2(C(=O)OCCCCCCCCCCn3cc(CCN)c4ccccc43)CC[C@]3(C)[C@H](C[C@@H](O)[C@@H]4[C@@]5(C)C(CC(=O)OC)OC(C)(C)C5CC[C@]43C)[C@@H]12` (stereo not given in full): the IC50 in the test with MCF7 was found to be 25.5 µM; in the test on A549 it was 7.97 µM; in the test with HepG2 it was 2.11 µM; with PC-3M, 5.7 µM; in the test on PANC-1, 5.63 µM.

With `C=C(C)[C@@H]1CC[C@]2(C(=O)OCCCCCCn3cnc(C)c3)CC[C@]3(C)[C@H](C[C@@H](O)[C@@H]4[C@@]5(C)C(CC(=O)OC)OC(C)(C)C5CC[C@]43C)[C@@H]12` (stereo not given in full), the concentration for half-maximal inhibition (IC50) is 33.4 µM in the test with MCF7; 25 µM in the test on A549; 12.8 µM in the test with HepG2; 18.4 µM with PC-3M; 17.7 µM in the test on PANC-1.

With `C=C(C)[C@@H]1CC[C@]2(C(=O)OCCCCCCBr)CC[C@]3(C)[C@H](C[C@@H](O)[C@@H]4[C@@]5(C)C(CC(=O)OC)OC(C)(C)C5CC[C@]43C)[C@@H]12` (stereo not given in full), the IC50 with MCF7 came to 73 µM; in the test on A549, 45.5 µM; in the test with HepG2, 22.2 µM; with PC-3M, 29 µM; in the test on PANC-1 it was 37.5 µM.

As for `C=C(C)[C@@H]1CC[C@]2(C(=O)OCCCCCCn3cncn3)CC[C@]3(C)[C@H](C[C@@H](O)[C@@H]4[C@@]5(C)C(CC(=O)OC)OC(C)(C)C5CC[C@]43C)[C@@H]12` (stereo not given in full), the IC50 in the test with MCF7 was 79.9 µM; in the test with A549, 52.7 µM; in the test with HepG2, 37.8 µM; with PC-3M, 27.4 µM; in the test on PANC-1 it was 59.8 µM.

Regarding `C=C(C)[C@@H]1CC[C@]2(C(=O)OCCCCCCCCCCn3cnc(C)c3)CC[C@]3(C)[C@H](C[C@@H](O)[C@@H]4[C@@]5(C)C(CC(=O)OC)OC(C)(C)C5CC[C@]43C)[C@@H]12` (stereo not given in full), the half-maximal inhibitory concentration (IC50) turned out to be 33.7 µM with MCF7; 22.4 µM with A549; 6.76 µM with HepG2; 12.7 µM in the test on PC-3M; 12.3 µM with PANC-1.

Regarding `C=C(C)[C@@H]1CC[C@]2(C(=O)OCCCCCCCCCCn3ccnc3)CC[C@]3(C)[C@H](C[C@H]4OC(=O)C[C@@H](O)[C@]5(C)[C@@H]4[C@@]3(C)CC[C@H]5C(=C)C)[C@@H]12`, the half-inhibitory concentration (IC50) in the test on MCF7 is 44.9 µM; with A549, 17.2 µM; with HepG2, 4.23 µM; in the test on PC-3M it was 11.8 µM; with PANC-1 it was 11.3 µM.

For `C=C(C)[C@@H]1CC[C@]2(C(=O)OCCCCBr)CC[C@]3(C)[C@H](C[C@@H](O)[C@@H]4[C@@]5(C)C(CC(=O)OC)OC(C)(C)C5CC[C@]43C)[C@@H]12` (stereo not given in full), the IC50 with MCF7 worked out at 82 µM; in the test with A549 it was 46 µM; in the test with HepG2, 27.6 µM; in the test with PC-3M it was 53.3 µM; in the test on PANC-1 it was 72.8 µM.

As to `C=C(C)[C@@H]1CC[C@]2(C(=O)OCCCCCCCCCCn3ccnc3CC)CC[C@]3(C)[C@H](C[C@@H](O)[C@@H]4[C@@]5(C)C(CC(=O)OC)OC(C)(C)C5CC[C@]43C)[C@@H]12` (stereo not given in full), the 50% inhibitory concentration (IC50) turned out to be 18.5 µM in the test on MCF7; 18.5 µM in the test on A549; 6.97 µM in the test with HepG2; 11.5 µM with PC-3M; 10.6 µM in the test with PANC-1.

By IC50 is commonly meant the concentration that gives 50% inhibition.
